Data from US20080113956A1, “Substituted Porphyrins” (priority 1997, published 2008).
Where two headings read alike, the source gives them in different places.

Key:
rat brain homogenates = experiment: Iron/ascorbate mediated lipid peroxidation of rat brain homogenates (TBARS); format: biochemical; settings: for IC50: rat brain homogenate, 30 minutes incubation with iron and ascorbate, TBARS
Method: Frozen adult Sprague-Dawley rat brains (Pel-Freez, Rogers, Ark.) were homogenized with a polytron (Turrax T25, Germany) in 5 volumes of ice cold 50 mM potassium phosphate at pH 7.4. Homogenate protein concentration was determined with the Coomassie Plus protein assay (Pierce, Rockford, Ill.) using bovine serum albumin as a standard. The homogenate volume was adjusted with buffer to give a final protein concentration of 10 mg/ml and frozen as aliquots at […].
Rat brain homogenates (2 mg protein) were incubated with varying concentrations of antioxidant at 37° C. for 15 minutes. Oxidation of the rat brain homogenate was initiated by the addition of 0.1 ml of a freshly prepared anaerobic stock solution containing iron(II) chloride (0.25 mM) and ascorbate (1 mM) as previously reported (Braughler et al, J. Biol. Chem. 262:10438 (1987)). Samples (final volume 1 ml) were placed in a shaking water bath at 37° C. for 30 minutes. The reactions were stopped by the addition of 0.1 ml of a stock butylated hydroxytoluene (60 mM) solution in ethanol.
The concentration of thiobarbituric acid reactive species (TBARS) in rat brain homogenates was used as a index of lipid peroxidation (Bernhem et al, J. Biol. Chem. 174:257 (1948); Witz et al, J. Free Rad. Biol. Med. 2:33 (1986); Kikugawa et al, Anal. Biochem. 202:249 (1992); Jentzsch et al, Free Rad. Biol. Med. 20P251 (1996)). Malondialdehyde standards were obtained by adding 8.2 μl of 1,1,3,3-tetramethoxypropane in 10 ml of 0.01 M HCl and mixing for 10 minutes at room temperature. This stock was further diluted in water to give standards that ranged from 0.25 to 25 μM. Samples or standards (200 μl) were acidified with 200 μl of 0.2 M phosphoric acid in 1.5 ml locking microfuge tubes. The color reaction was initiated by the addition of 25 μl of a 0.11M thiobarbituric acid solution and samples were placed in a 90° C. heating block for 45 minutes. TBARS were extracted with 0.5 ml of n-butanol by vortexing samples for 3 minute and chilling on ice for 1 minute. The samples were then centrifuged at 12,000×g for 3 minutes, 150 μl aliquots of the n-butanol phase were placed in each well of a 96-well plate and read at 535 nm in a Thermomax platereader (Molecular Devices, Sunnyvale, Calif.) at 25° C. Sample absorbencies were converted to MDA equivalencies (μM) by extrapolation from the MDA standard curve. None of the antioxidants at concentrations employed in these studies affected the reaction of MDA standards with thiobarbituric acid and reactions without TBA were used as subtraction blanks.
Data were presented as their means ±SE. The inhibitory concentration of antioxidants that decreased the degree of lipid peroxidation by 50% (IC50) and respective 95% confidence intervals (CI) were determined by fitting a sigmoidal curve with variable slope to the data (GraphPad Prizm, San Diego, Calif.).

[1] = SOD activity in U/mg (reduction of cytochrome c or photoreduction of NBT); format: biochemical; settings: for SOD: unit = amount that inhibits one half the reduction of cytochrome c or photoreduction of NBT
[2] = literature comparators, cited from earlier work
[3] = vs NHE, literature comparators, cited from earlier work
DNA = experiment: SOD activity in vitro in the presence of DNA (DNA interaction); format: biochemical
From the text: The “ortho effect” also decreases the toxicity. It is well known that porphyrins, and particularly cationic porphyrins, interact with DNA and can act as DNA cleavers. This fact can be an issue in the use of metallo-porphyrins as anti-tumor drugs. The present mimetics avoid this interaction.
In order to maximize the decrease in toxicity due to interaction with DNA, two derivatives of the ortho compound have been prepared which carry four ethyl or four butyl groups (“4” and “5”, respectively).

mean arterial pressure = experiment: Effect on vascular tone: blood pressure in anesthetized rats; format: in vivo; settings: rat; for duration of the hypotensive effect: i.v.
Method: Rats were anesthetized and a femoral vein and carotid artery were cannulated. While blood pressure was monitored by the carotid artery, Mn TM-2-PyP was injected i.v. at doses ranging from 0.1 to 3.0 mg/kg. Mean arterial pressure fell from 100-125 mmHg to 50-60 mmHg within five to ten minutes. The effect was transient, lasting up to 30 minutes at doses of 0.1 to 0.25 mg/kg. […] Scavenging of superoxide in vascular walls would potentiate the effects of nitric oxide producing hypotension.

airway hyperreactivity = experiment: Airway hyperreactivity to methacholine in ovalbumin sensitized mice; format: in vivo, mouse; settings: intratracheal 2 μg daily for 4 days, methacholine 20, 30 and 40 mg/ml
Method: Mice were sensitized by intraperitoneal injection of ovalbumin twice, 14 days apart. Fourteen days after the second i.p. injection they were challenged with aerosolized ovalbumin daily for three days. Forty-eight hours after the third inhalation of ovalbumin they were given a 1 minute methacholine challenge and airway hyperreactivity followed using a Buxco body plethysmograph. Significant increases in airway resistance as measured by the PENH index occurred at doses of 20, 30 and 40 mg/ml of methacholine. […] This dose of in TM-2-PyP is equivalent to 0.8 mg/kg whole body dose.

[4] = system: isolated, perfused mouse liver; experiment: Isolated, perfused mouse liver, global ischemia/reperfusion injury; settings: 10 μm in perfusate
Method: The ability of Mn TE-2-PyP to attenuate injury associated with 60 minutes of global ischemia followed by 90 minutes of reperfusion was assessed in an isolated, perfused mouse liver model. Excised livers were perfused with a buffered salt solution for 15 minutes after which the metalloporphyrin was introduced into the perfusate and the liver perfused in a recirculating system for an additional 15 minutes. The livers were then rendered globally ischemic under normal thermic conditions for 60 minutes. Following the ischemic period the livers were perfused for 90 minutes with perfusate supplemented with 10 μm Mn TE-2-PyP. In this model the ischemia/reperfused livers have a marked release of hepatocellular enzymes, aspartate transaminase, alanine transaminase, and lactate dehydrogenase during the first 2½ minutes of reperfusion. This is followed by a progressive release of hepatocellular enzymes indicating hepatocellular injury over the 90 minute perfusion period. […] At the end of the experiments liver […]. […] They remain firm and with a normal texture to gross morphologic examination.

Compound: manganese(III) 5,10,15,20-tetrakis(N-methylpyridyl)porphyrin [MnTM-4-PyP^5+, reference compound]
- IC50 (rat brain homogenates): 16 µM
- SOD [1]: 547 U/mg
- kcat of comparison compounds [2]: 0.4 10^7 M^−1 s^−1
- E°1/2 half-wave potential of comparison compounds [3]: +60 mV
- E°1/2 half-wave potential of comparison compounds ([3]; listed as MnTM-4-PyP^5−): +060 mV

Compound: manganese(III) 5,10,15,20-tetrakis(N-methylpyridyl)porphyrin [MnTM-2-PyP^5+]
- interaction with DNA (DNA; SOD activity in vitro in the presence of DNA): greatly decreased
- increase in potency as lipid peroxidation inhibitor, ortho vs para (rat brain homogenates; MnTM-2-PyP vs MnTM-4-PyP): 15 fold
- IC50 (rat brain homogenates): 1 µM
- difference in SOD activity, ortho vs para ([1]; MnTM-2-PyP vs MnTM-4-PyP): factor of six
- SOD [1]: 8,500 U/mg
- mean arterial pressure after injection (mean arterial pressure; i.v. 0.1 to 3.0 mg/kg, fell from 100-125 mmHg within five to ten minutes): 50-60 mmHg
- duration of the hypotensive effect (mean arterial pressure; doses of 0.1 to 0.25 mg/kg): up to 30 minutes
- duration of the hypotensive effect (mean arterial pressure; doses of 1-3 mg/kg): up to two hours
- airway hyperreactivity (PENH index) (airway hyperreactivity): statistically significant reduction
- kcat of comparison compounds ([2]; listed as MnTM-2-PyP^3−): 6.0 10^7 M^−1 s^−1
- E°1/2 half-wave potential of comparison compounds ([3]; listed as MnTM-2-PyP^3−): +220 mV

Compound: CC[n+]1ccccc1-c1c2nc(c(-c3cccc[n+]3CC)c3ccc([n-]3)c(-c3cccc[n+]3CC)c3nc(c(-c4cccc[n+]4CC)c4ccc1[n-]4)C=C3)C=C2.[Mn+3] [MnTE-2-PyP^5+, manganic meso-tetrakis-(N-ethylpyridinium-2-yl)porphyrin]
- toxicity due to interaction with DNA, comparison between ortho derivatives (DNA; Table 2 and FIG. 3): significantly less toxic than the methyl derivative
- attenuation of liver injury ([4]; 60 minutes global ischemia, 90 minutes reperfusion): highly efficacious in attenuating the liver injury
- acute hepatocellular enzyme release ([4]; first 2½ minutes of reperfusion): blocking virtually all
- progressive hepatocellular enzyme release ([4]; over the 90 minute perfusion period): blocking progressive hepatocellular enzyme release
